Test results from ChEMBL document CHEMBL1201862, “PubChem BioAssay data set” (2004).
Active and inactive are the calls of the source.

Columns and labels:
[1] = molecular target: T1, RNA-binding protein pos-1 (Caenorhabditis elegans, UniProt G5EF15); experiment: inhibitors of POS-1/mex-3 RNA binding, dose response, biochemical, fluorescence polarization (AID 1964);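 further: purified POS-1 fused to maltose binding protein made in E. coli; potency of compounds blocking POS-1 binding to fluorescent RNA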
T1 sequence (G5EF15 whole entry): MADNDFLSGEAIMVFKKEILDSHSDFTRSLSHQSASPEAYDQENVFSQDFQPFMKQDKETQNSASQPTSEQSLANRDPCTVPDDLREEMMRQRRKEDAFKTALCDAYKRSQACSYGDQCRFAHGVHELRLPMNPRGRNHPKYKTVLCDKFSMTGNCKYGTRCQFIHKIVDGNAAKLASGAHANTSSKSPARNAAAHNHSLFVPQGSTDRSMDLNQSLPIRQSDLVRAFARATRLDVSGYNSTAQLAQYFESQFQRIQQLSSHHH

[2] = molecular target: T2, Zinc finger protein mex-5 (Caenorhabditis elegans, UniProt Q9XUB2); experiment: MEX-5/TCR-2 RNA interaction inhibitors, dose response, biochemical, C. elegans, fluorescence polarization (AID 1960)
T2 sequence (Q9XUB2 whole entry): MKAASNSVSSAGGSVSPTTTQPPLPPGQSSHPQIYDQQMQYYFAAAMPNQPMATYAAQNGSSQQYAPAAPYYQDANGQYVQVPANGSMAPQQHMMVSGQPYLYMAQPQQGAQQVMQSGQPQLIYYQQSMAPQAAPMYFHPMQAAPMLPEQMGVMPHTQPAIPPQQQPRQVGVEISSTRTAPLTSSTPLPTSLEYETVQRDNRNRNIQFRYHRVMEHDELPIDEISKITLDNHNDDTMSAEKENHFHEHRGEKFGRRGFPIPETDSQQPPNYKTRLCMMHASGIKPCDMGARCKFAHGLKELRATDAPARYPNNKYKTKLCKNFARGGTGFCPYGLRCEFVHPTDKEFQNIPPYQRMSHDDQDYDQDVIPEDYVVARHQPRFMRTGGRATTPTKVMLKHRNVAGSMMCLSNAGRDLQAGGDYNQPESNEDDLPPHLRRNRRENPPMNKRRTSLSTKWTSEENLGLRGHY

Beta-lactamase [3] = molecular target: Beta-lactamase (Pseudomonas aeruginosa, UniProt Q79MP6);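 further: biochemical dose-response test of metallo-beta-lactamase enzyme inhibition, read out by epi-absorbance; purified recombinant IMP-1 metallo-beta-lactamase with nitrocefin as substrate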
Beta-lactamase [4] = molecular target: Beta-lactamase (Salmonella choleraesuis (strain SC-B67), UniProt Q5J463)
Sequence of Beta-lactamase (Salmonella choleraesuis (strain SC-B67), UniProt Q5J463) (Q5J463 whole entry): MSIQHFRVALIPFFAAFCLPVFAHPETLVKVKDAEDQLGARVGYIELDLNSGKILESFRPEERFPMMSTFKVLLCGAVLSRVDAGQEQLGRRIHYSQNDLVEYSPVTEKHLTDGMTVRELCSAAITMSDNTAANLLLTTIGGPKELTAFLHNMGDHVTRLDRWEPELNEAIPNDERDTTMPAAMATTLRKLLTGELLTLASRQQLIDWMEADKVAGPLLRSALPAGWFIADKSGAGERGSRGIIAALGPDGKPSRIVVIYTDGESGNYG

[5] = molecular target: Voltage-dependent T-type calcium channel subunit alpha-1H (Homo sapiens, UniProt O95180); format: functional;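 further: channel activity triggered by adding a high calcium stimulation buffer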
ORF 73 = ORF 73 (Human herpesvirus 8, UniProt O40947); experiment: inhibitors of C-LANA binding to LBS DNA, dose response, biochemical, fluorescence polarization, cherry-picked samples (AID 504725); design: species or system Human gammaherpesvirus 8;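 further: fluorescence polarization of a labeled DNA duplex reporting LANA DNA binding; potency is for inhibitors that block LANA binding to the DNA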
Sequence of ORF 73 (O40947 whole entry): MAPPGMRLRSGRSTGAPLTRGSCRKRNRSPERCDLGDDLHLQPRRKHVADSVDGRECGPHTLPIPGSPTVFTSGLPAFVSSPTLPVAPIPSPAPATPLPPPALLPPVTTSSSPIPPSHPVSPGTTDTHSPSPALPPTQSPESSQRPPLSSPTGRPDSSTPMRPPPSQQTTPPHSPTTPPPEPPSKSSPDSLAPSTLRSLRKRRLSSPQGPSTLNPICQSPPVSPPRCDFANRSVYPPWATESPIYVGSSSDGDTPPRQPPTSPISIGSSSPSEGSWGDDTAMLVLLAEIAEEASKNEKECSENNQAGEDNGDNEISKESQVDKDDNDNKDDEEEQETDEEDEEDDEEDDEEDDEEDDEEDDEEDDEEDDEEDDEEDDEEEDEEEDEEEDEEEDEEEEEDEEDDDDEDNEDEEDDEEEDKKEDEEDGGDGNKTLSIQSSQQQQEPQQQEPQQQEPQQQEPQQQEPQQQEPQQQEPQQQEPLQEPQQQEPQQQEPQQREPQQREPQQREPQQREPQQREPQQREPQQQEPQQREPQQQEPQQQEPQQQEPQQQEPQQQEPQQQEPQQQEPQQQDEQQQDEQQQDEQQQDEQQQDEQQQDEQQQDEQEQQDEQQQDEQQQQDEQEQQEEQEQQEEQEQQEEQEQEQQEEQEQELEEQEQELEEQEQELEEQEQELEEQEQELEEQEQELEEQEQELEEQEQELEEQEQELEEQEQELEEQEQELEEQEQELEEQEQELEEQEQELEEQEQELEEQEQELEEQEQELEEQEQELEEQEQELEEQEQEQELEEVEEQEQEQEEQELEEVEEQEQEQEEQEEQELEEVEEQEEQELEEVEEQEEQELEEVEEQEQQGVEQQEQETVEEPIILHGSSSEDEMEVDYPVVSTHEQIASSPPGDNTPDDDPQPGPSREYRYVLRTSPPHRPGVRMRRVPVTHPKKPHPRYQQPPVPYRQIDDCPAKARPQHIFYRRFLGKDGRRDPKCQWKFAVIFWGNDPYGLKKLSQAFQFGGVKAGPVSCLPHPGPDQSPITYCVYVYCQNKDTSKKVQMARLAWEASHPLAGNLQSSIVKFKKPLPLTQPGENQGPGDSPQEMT

Keap1/Nrf2 = Keap1/Nrf2 (Homo sapiens, UniProt Q14145); experiment: Keap1-Nrf2 protein-protein interaction inhibitors, dose response, biochemical, fluorescence polarization, cherry-picked samples (AID 588683)
Sequence of Keap1/Nrf2 (Q16236 whole entry): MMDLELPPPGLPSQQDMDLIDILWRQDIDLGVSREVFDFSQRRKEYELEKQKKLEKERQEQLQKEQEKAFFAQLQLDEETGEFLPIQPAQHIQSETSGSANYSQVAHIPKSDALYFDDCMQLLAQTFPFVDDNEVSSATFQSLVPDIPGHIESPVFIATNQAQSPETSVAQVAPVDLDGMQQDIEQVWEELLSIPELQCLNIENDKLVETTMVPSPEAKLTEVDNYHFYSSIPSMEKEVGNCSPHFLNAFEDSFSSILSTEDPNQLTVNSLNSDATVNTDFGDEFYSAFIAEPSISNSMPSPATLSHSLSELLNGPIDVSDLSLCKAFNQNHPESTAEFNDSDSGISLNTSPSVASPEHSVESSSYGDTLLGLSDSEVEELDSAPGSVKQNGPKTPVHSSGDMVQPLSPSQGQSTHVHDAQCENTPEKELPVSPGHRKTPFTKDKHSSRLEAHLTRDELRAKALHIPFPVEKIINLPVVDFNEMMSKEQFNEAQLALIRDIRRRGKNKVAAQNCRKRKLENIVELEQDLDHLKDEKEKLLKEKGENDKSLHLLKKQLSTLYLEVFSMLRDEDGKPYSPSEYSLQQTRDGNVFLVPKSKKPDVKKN
Sequence of Keap1/Nrf2 (Q14145 whole entry): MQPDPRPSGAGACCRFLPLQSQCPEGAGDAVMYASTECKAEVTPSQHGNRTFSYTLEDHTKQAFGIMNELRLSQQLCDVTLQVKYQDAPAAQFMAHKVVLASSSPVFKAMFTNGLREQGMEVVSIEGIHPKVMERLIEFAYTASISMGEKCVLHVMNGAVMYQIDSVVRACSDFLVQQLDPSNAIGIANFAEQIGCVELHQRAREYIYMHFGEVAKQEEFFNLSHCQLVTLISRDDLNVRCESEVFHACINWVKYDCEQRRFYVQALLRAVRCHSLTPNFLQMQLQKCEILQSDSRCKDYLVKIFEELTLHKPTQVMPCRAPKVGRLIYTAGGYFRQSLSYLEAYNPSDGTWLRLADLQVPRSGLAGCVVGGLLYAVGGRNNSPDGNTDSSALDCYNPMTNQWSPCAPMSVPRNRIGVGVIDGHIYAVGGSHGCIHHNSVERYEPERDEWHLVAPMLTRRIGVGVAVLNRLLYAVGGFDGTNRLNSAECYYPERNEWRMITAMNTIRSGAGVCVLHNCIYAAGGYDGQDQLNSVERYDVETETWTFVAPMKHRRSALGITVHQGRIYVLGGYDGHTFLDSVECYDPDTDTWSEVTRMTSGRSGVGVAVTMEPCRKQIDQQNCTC

SUMO-activating enzyme [6] = molecular target: T3, SUMO-activating enzyme (Homo sapiens, UniProt Q9UBT2); experiment: SUMOylation inhibitor hit validation, confirmation, SUMOylation inhibitor project, biochemical, AlphaScreen (AID 2018); format: functional
T3 sequence (Q9UBE0 whole entry): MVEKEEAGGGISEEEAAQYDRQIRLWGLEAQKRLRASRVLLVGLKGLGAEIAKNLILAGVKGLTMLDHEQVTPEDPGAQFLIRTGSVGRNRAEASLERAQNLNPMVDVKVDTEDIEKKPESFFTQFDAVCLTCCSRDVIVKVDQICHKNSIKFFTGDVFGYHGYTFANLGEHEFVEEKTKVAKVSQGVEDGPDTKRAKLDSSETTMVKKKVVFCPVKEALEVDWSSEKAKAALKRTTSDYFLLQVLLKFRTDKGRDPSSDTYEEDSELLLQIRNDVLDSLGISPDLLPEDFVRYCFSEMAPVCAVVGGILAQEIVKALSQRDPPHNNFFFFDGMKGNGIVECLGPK
T3 sequence (Q9UBT2 whole entry): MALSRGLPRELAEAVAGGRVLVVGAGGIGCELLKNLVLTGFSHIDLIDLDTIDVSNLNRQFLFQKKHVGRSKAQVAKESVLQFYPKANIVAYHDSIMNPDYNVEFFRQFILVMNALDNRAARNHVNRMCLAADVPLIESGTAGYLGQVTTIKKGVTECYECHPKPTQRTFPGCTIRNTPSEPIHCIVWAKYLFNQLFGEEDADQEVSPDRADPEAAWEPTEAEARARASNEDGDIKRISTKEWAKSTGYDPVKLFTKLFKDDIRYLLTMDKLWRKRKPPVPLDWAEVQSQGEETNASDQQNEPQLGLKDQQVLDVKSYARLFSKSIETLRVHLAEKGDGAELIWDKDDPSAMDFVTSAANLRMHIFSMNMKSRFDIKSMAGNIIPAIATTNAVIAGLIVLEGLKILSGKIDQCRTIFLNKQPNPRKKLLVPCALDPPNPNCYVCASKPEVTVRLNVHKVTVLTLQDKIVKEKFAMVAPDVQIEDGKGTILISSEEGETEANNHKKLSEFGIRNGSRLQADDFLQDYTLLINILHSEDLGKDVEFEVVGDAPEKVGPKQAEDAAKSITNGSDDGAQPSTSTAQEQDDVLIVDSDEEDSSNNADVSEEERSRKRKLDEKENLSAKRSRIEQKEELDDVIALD

SUMO-activating enzyme [7] = molecular target: T3, SUMO-activating enzyme; experiment: inhibitors of in vitro SUMOylation cascade, primary screen, biochemical, HTRF, uHTS (AID 2006); format: protein-complex assay
[8] = molecular target: Intestinal-type alkaline phosphatase (Mus musculus, UniProt P24822); experiment: PubChem AID 488785; format: functional
Sequence of Intestinal-type alkaline phosphatase (Mus musculus, UniProt P24822) (P24822 whole entry): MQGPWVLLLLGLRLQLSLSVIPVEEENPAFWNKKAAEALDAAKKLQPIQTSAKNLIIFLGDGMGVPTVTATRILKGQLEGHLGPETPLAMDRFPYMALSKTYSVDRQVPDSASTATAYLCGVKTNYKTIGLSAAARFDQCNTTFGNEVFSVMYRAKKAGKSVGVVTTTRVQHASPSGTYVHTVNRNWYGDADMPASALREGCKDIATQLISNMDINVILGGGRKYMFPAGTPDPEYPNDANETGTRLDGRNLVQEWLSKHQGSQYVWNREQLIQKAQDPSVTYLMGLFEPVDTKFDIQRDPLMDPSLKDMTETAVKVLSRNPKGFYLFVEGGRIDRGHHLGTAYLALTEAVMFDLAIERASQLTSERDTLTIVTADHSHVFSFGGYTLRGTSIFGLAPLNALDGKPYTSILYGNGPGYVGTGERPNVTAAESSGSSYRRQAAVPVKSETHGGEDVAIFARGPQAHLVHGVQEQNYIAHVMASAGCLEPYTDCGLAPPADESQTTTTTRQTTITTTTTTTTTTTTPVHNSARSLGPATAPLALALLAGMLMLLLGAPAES

[9] = molecular target: T4, Alkaline phosphatase, tissue-nonspecific isozyme (Homo sapiens, UniProt P05186); experiment: TNAP enzyme inhibition by screening hits, dose response, selectivity assay for mouse IAP inhibitor project, biochemical, human TNAP, uHTS hits (AID 488906); format: functional
T4 sequence (P05186 whole entry): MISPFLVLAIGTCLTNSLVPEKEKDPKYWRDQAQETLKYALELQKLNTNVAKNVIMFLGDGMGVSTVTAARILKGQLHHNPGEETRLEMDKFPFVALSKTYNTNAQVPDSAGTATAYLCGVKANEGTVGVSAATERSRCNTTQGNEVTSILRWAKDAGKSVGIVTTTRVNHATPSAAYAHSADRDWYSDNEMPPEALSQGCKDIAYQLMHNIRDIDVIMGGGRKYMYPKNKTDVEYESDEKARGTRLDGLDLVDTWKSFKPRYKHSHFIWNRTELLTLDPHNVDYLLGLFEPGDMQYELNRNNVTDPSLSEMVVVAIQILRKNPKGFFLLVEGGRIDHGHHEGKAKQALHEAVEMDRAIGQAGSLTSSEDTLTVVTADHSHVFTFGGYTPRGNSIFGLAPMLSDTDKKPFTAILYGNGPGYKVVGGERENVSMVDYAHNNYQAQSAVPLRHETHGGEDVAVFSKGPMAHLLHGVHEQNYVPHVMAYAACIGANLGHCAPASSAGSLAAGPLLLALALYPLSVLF

Cysteine protease ATG4B = molecular target: T5, Cysteine protease ATG4B (Homo sapiens, UniProt Q9Y4P1); format: functional;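 further: Fluorescence-based dose-response confirmation assay measuring inhibition of ATG4B activity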
T5 sequence (Q9Y4P1 whole entry): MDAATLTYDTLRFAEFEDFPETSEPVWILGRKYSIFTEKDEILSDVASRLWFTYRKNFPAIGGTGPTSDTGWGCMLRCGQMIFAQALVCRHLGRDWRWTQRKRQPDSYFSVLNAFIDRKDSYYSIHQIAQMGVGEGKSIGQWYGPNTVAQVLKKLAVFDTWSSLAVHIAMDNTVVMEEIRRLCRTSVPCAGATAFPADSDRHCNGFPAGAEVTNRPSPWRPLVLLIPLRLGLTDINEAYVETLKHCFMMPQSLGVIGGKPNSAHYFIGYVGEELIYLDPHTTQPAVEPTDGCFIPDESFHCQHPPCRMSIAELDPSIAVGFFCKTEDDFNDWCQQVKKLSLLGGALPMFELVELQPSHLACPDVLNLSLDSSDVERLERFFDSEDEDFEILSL

[10] = molecular target: Intestinal-type alkaline phosphatase (Homo sapiens, UniProt P09923); experiment: inhibition of human intestinal alkaline phosphatase – biochemical, dose response (AID 488876); format: functional
Phospholipase A2 = Phospholipase A2 (Homo sapiens, UniProt P04054); format: functional;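 further: confirmatory dose-response counterscreen on phospholipase A2, testing hits that came from an ultra-high-throughput screen for ATG4B inhibitors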
Sequence of Phospholipase A2 (P04054 whole entry): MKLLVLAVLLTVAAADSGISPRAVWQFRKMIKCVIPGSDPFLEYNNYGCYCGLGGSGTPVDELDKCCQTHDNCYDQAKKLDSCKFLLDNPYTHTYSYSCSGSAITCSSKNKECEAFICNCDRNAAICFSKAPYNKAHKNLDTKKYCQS

[11] = molecular target: DNA (cytosine-5)-methyltransferase 1 (Homo sapiens, UniProt P26358); experiment: DNMT1 methyltransferase inhibitors, confirmation, biochemical, fluorescent molecular beacon (AID 602386); format: functional
[12] = molecular target: 26S proteasome non-ATPase regulatory subunit 14 (Homo sapiens, UniProt O00487); experiment: inhibition of proteasome subunit RPN11 – biochemical, fluorescence polarization, uHTS hits, confirmation (AID 602368); format: functional
[13] = molecular target: 72 kDa type IV collagenase (Homo sapiens, UniProt P08253); experiment: Dose Response validation of uHTS RPN11 inhibitor hits using a MMP-2 Fluorescence assay.; format: functional
Sequence of 72 kDa type IV collagenase (P08253 whole entry): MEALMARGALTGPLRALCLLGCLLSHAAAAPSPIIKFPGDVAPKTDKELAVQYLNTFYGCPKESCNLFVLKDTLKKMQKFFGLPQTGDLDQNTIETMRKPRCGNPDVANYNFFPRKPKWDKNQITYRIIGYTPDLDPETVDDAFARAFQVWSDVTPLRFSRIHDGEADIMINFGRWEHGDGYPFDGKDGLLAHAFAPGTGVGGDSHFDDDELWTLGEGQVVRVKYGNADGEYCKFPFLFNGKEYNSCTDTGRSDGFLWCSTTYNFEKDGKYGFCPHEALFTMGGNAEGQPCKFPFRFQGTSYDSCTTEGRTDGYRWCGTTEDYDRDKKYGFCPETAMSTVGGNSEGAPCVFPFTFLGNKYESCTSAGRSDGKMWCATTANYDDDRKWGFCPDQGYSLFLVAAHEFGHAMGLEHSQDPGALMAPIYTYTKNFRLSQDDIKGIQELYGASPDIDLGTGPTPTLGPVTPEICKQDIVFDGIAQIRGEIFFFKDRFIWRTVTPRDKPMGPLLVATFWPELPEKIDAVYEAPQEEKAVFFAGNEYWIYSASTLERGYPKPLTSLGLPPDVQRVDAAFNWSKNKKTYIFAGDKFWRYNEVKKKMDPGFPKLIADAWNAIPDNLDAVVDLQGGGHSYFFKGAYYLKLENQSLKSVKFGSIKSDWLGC

Prothrombin = Prothrombin (Bos taurus, UniProt P00735); experiment: thrombin inhibition, dose response, biochemical, fluorescence polarization, uHTS hits (AID 602369); format: functional
[14] = molecular target: T6, Histone-lysine N-methyltransferase NSD2 (Homo sapiens, UniProt O96028); format: biochemical
T6 sequence (O96028 whole entry): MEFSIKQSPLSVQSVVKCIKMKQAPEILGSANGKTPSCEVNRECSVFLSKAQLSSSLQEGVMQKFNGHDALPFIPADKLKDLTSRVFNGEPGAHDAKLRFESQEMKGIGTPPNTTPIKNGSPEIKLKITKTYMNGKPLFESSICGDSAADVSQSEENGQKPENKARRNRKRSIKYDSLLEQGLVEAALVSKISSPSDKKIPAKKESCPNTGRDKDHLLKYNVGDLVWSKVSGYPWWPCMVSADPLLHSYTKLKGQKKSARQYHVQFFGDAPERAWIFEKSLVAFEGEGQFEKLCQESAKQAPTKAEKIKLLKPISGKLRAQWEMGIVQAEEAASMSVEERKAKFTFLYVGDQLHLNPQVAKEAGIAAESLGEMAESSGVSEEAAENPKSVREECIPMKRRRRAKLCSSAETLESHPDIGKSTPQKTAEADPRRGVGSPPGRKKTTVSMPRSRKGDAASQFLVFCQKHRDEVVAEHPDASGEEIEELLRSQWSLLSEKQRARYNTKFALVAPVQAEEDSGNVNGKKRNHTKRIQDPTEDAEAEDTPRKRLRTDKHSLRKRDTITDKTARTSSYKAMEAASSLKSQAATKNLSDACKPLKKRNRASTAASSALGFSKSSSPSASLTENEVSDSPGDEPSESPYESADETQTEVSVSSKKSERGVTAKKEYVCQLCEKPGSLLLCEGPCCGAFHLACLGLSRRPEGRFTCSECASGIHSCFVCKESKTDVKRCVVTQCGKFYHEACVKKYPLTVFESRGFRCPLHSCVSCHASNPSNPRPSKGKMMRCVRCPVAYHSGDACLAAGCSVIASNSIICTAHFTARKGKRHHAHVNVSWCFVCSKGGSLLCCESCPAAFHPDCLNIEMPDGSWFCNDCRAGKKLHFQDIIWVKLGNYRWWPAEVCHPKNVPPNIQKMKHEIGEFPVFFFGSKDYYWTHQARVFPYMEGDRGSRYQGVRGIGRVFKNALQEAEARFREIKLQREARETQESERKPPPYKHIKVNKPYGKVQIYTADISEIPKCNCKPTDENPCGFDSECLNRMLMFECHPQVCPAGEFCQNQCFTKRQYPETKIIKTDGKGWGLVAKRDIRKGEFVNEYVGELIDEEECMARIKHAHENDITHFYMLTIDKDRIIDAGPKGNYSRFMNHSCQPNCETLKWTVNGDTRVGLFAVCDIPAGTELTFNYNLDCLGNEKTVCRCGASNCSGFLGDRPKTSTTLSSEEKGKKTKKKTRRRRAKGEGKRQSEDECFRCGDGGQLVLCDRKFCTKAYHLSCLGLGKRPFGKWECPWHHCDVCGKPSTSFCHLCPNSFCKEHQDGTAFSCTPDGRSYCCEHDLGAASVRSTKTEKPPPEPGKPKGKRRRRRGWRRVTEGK

[15] = molecular target: T7, Tyrosyl-DNA phosphodiesterase 2 (Homo sapiens, UniProt O95551); experiment: human TDP2 enzyme inhibitors, dose response, biochemical, epi absorbance, IC50 (AID 743297)
T7 sequence (O95551 whole entry): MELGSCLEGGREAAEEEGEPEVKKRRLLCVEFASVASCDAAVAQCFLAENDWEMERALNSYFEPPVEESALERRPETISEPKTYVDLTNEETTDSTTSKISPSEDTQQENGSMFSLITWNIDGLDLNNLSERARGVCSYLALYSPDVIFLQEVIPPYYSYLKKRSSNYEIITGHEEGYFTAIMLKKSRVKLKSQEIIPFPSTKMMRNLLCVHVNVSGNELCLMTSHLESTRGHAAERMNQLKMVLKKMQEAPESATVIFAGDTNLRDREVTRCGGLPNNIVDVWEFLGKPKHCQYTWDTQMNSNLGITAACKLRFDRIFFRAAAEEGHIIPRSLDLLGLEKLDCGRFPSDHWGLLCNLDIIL

[16] = molecular target: T8, Heat shock factor protein 1 (Mus musculus, UniProt P38532); experiment: inhibition of MG132-induced HSE-luciferase signal, confirmation, cell-based, NIH3T3, luminescence, dose retest (AID 2382); format: functional;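 further: NIH3T3 fibroblasts with HSF1-driven luciferase reporter stressed by proteasome inhibitor MG132; luminescence from HSF1-driven luciferase expression after 8 hours of MG132 stress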
T8 sequence (P38532 whole entry): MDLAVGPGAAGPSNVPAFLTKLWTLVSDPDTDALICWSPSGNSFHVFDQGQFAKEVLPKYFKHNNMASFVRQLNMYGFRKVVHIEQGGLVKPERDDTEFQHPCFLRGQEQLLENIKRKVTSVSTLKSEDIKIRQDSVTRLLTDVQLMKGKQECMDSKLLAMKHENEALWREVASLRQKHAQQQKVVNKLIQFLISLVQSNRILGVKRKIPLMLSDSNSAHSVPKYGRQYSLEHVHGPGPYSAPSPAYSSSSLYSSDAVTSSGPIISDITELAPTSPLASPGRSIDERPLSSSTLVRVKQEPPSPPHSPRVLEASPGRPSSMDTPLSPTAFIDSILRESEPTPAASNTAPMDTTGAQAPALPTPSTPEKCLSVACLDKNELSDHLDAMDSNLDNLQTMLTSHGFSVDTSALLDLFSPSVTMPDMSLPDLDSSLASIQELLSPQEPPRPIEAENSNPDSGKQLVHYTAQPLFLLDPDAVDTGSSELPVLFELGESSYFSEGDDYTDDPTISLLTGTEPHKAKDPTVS

[17] = molecular target: Heat shock protein HSP 90-alpha (Homo sapiens, UniProt P07900); format: functional, organism-based
Genome polyprotein = Genome polyprotein (dengue virus type 2, UniProt P29990); experiment: Dengue-2 NS5 methyltransferase inhibitors, primary screen, biochemical, confirmation dose response (AID 588689); format: functional
[18] = molecular target: DNA dC->dU-editing enzyme APOBEC-3A (Homo sapiens, UniProt P31941); experiment: APOBEC3A DNA deaminase inhibitors, dose response, biochemical (AID 504722); format: functional
[19] = molecular target: DNA dC->dU-editing enzyme APOBEC-3G (Homo sapiens, UniProt Q9HC16); experiment: Dose Response confirmation of small molecule APOBEC3G DNA Deaminase Inhibitors via a fluorescence-based single-stranded DNA deaminase assay. [Related pubchem assays (depositor defined):AID493012, AID493028]; format: functional

Cc1n[nH]c(C)c1N1C(=O)c2cccc3c(N4CCCCCC4)ccc(c23)C1=O
EC50 [1]: 6.94 µM (inconclusive) | EC50 [2]: 1.72 µM (inconclusive) | IC50 (Beta-lactamase [3]): > 59.6 µM (inactive) | IC50 (Beta-lactamase [4]): 27.8 µM (inactive) | EC50 [5]: 1.04 µM (active) | AC50 (ORF 73): > 350 µM (inactive) | AC50 (Keap1/Nrf2): 32.5 µM (active)

COc1cc(NS(=O)(=O)c2ccc(NC(=S)NC(=O)/C=C/c3ccco3)cc2)ncn1
IC50 (SUMO-activating enzyme [6]): 2.41 µM (active) | IC50 (SUMO-activating enzyme [7]): 26.1 µM (active) | IC50 [8]: 18.4 µM (active) | IC50 [9]: 45.9 µM (active) | IC50 (Cysteine protease ATG4B): 6 µM (active) | IC50 [10]: > 100 µM (inactive) | IC50 (Phospholipase A2): > 80 µM (inactive) | AC50 (Keap1/Nrf2): > 52 µM (inactive) | IC50 [11]: 2.92 µM (active) | IC50 [12]: 12.9 µM (active) | IC50 [13]: 2.15 µM (active) | IC50 (Prothrombin): 20.5 µM (active) | AC50 [14]: 13.2 µM (active) | IC50 [15]: 30.4 µM (inactive)

COc1ccc(OC)c(N2C(=O)NC(=O)/C(=C\c3ccc([N+](=O)[O-])s3)C2=O)c1
EC50 [16]: > 195 µM (not active) | AC50 (ORF 73): 90.7 µM (active) | AC50 [17]: 4.17 µM (active) | IC50 (Genome polyprotein): 39.9 µM (active)

Sc1nnc(COc2ccccc2)n1/N=C/c1ccccn1
IC50 [18]: > 100 µM (inactive) | IC50 [19]: 3.99 µM (active)
